In ChEMBL document CHEMBL5356935, “Discovery of rigid biphenyl Plasmodium falciparum DHFR inhibitors using a fragment linking strategy” (RSC Med Chem, 2023):
In brackets after ≈: the same amount, converted by molar mass. Activity calls are given as the source filed them. No cut-off for these calls is given here.

Experiments:
[1] = target: T1, Dihydrofolate reductase (Homo sapiens) (UniProt P00374); assay: Inhibition of human DHFR at 500 uM by UV-Vis spectrometry analysis
T1 sequence (whole entry): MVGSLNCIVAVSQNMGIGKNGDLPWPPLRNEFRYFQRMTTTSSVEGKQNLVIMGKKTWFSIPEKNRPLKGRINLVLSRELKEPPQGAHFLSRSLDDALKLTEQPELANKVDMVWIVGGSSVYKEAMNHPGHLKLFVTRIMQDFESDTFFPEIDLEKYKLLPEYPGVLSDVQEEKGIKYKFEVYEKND

[2] = target: Bifunctional dihydrofolate reductase-thymidylate synthase (Plasmodium falciparum K1) (UniProt P13922); assay: Inhibition of wild type Plasmodium falciparum DHFR using DHF as substrate at 500 uM in presence of NADPH by UV-Vis spectrometry analysis relative to control
Sequence of Bifunctional dihydrofolate reductase-thymidylate synthase (Plasmodium falciparum K1) (P13922 whole entry, looked up): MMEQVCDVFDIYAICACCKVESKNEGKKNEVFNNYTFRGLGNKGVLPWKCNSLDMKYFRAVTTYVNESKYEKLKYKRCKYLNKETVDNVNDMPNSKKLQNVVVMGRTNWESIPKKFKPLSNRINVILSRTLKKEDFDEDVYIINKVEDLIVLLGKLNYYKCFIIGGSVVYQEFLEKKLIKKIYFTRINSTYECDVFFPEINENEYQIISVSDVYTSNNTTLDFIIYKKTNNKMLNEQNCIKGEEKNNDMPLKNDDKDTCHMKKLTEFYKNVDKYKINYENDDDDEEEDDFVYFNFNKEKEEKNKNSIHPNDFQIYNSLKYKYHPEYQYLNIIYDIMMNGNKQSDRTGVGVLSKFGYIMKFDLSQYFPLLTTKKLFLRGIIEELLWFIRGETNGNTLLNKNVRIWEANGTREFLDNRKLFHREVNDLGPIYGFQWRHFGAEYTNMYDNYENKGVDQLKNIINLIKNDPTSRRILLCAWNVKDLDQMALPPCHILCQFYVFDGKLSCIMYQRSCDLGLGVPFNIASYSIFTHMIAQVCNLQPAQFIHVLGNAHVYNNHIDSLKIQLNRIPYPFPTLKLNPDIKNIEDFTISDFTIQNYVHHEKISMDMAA

[3] = target: Bifunctional dihydrofolate reductase-thymidylate synthase (Plasmodium falciparum K1) (UniProt P13922); assay: Binding affinity to Plasmodium falciparum DHFR assessed as faster binding and release kinetics by surface plasmon resonance analysis
[4] = system: Plasmodium falciparum; assay: Inhibition of Plasmodium falciparum DHFR N51I/C59R/S108N/I164L quadruple mutant assessed as fold change in inhibition in presence of 2,4-diamino-6-ethylpyrimidin-5-ol
[5] = system: Plasmodium falciparum; assay: Inhibition of Plasmodium falciparum DHFR N51I/C59R/S108N/I164L quadruple mutant using DHF as substrate at 500 uM in presence of NADPH by UV-Vis spectrometry analysis relative to control
[6] = system: Plasmodium falciparum; assay: Antiplasmodial activity against PYR-resistant Plasmodium falciparum V1/S encoding QM DHFR infected in human erythrocytes assessed as inhibition of parasite growth by [3H]-hypoxanthine incorporation assay; assay type: functional, organism-based; conditions: Erythrocyte
[7] = target: Bifunctional dihydrofolate reductase-thymidylate synthase (Plasmodium falciparum K1, UniProt P13922); assay: Inhibition of wild type Plasmodium falciparum DHFR using DHF as substrate assessed as inhibition constant in presence of NADPH by UV-Vis spectrometry analysis
Sequence of Bifunctional dihydrofolate reductase-thymidylate synthase (P13922 whole entry): as the sequence (P13922 whole entry, looked up) above

[8] = Metabolic stability in human liver microsomes assessed as intrinsic clearance measured upto 60 mins in presence of NADPH by LC-MS/MS analysis; assay type: ADME, Microsome; conditions: read-out: CLH
[9] = Kinetic solubility of the compound at pH 4.5 at 200 uM incubated for 2 hrs under shaking condition by HPLC analysis; assay type: physicochemical; conditions: buffer, read-out: Kinetic_solubility
[10] = Kinetic solubility of the compound at pH 2.0 at 200 uM incubated for 2 hrs under shaking condition by HPLC analysis; assay type: physicochemical; conditions: buffer, read-out: Kinetic_solubility
[11] = Inhibition of Plasmodium falciparum DHFR N51I/C59R/S108N/I164L quadruple mutant using DHF as substrate assessed as inhibition constant in presence of NADPH by UV-Vis spectrometry analysis
[12] = Metabolic stability in rat liver microsomes assessed as intrinsic clearance measured upto 60 mins in presence of NADPH by LC-MS/MS analysis; assay type: ADME, Microsome; conditions: read-out: CLH
[13] = Cytotoxicity against African green monkey Vero cells assessed as cell growth inhibition incubated for 72 hrs by sulforhodamine B assay; assay type: toxicity, cell-based, Chlorocebus sabaeus
[14] = system: Plasmodium falciparum; assay: Antiplasmodial activity against PYR-sensitive Plasmodium falciparum TM4/8.2 encoding WT DHFR infected in human erythrocytes assessed as inhibition of parasite growth by [3H]-hypoxanthine incorporation assay; assay type: functional, organism-based; conditions: TM4/8.2, Erythrocyte
[15] = target: T2, Dihydrofolate reductase (Homo sapiens, UniProt P00374); assay: Inhibition of human DHFR using DHF as substrate assessed as inhibition constant in presence of NADPH by UV-Vis spectrometry analysis
T2 sequence (P00374 whole entry): T1 sequence (whole entry)

[16] = Kinetic solubility of the compound at pH 6.5 at 200 uM incubated for 2 hrs under shaking condition by HPLC analysis; assay type: physicochemical; conditions: buffer, read-out: Kinetic_solubility
[17] = Distribution coefficient, log D of compound in n-octanol and saturated PBS at pH 7.4 at 100 uM incubated for 2 hrs under shaking condition by HPLC analysis; assay type: physicochemical
[18] = Kinetic solubility of the compound at pH 7.4 at 200 uM incubated for 2 hrs under shaking condition by HPLC analysis; assay type: physicochemical; conditions: buffer, read-out: Kinetic_solubility
[19] = target: Bifunctional dihydrofolate reductase-thymidylate synthase (Plasmodium falciparum K1) (UniProt P13922); assay: Inhibition of wild type Plasmodium falciparum DHFR using DHF as substrate at 500 uM in presence of NADPH by UV-Vis spectrometry analysis
[20] = target: Bifunctional dihydrofolate reductase-thymidylate synthase (Plasmodium falciparum K1) (UniProt P13922); assay: Binding affinity to Plasmodium falciparum DHFR assessed as binding constant (koff) by surface plasmon resonance analysis
[21] = system: Plasmodium falciparum; assay: Binding affinity to Plasmodium falciparum apo-DHFR N51I/C59R/S108N/I164L quadruple mutant assessed as change in melting temperature by […] analysis
[22] = target: Bifunctional dihydrofolate reductase-thymidylate synthase (Plasmodium falciparum K1) (UniProt P13922); assay: Binding affinity to Plasmodium falciparum DHFR assessed as binding constant (kon) by surface plasmon resonance analysis
[23] = Half life in human; assay type: ADME
[24] = system: Plasmodium falciparum; assay: Inhibition of Plasmodium falciparum DHFR N51I/C59R/S108N/I164L quadruple mutant using DHF as substrate at 500 uM in presence of NADPH by UV-Vis spectrometry analysis

SMILES	inhibition [1]	inhibition [2] [%]	inhibition [5] [%]	IC50 [6] [µM]	Ki [7] [µM]	Ki [11] [µM]	IC50 at 72 h [13] [µM]	IC50 [14] [µM]	Ki [15] [µM]	K [20] [s⁻¹]	K [22] [M⁻¹ s⁻¹]	also measured
COc1cccc(-c2ccc(C(=O)O)cc2)c1	inactive	37.8	45.8									Activity [3]: Active; fold change (FC) [4]: 2
CCc1nc(N)nc(N)c1Cc1ccc(-c2ccc(C(=O)O)cc2)cc1.Cl				> 50	0.00159	0.0611	> 50	11.2	0.214			microsomal CLint [8]: < 3 µL/min/mg; solubility kinetic at 2 h, 200 µM [9]: 8.8 µM; solubility kinetic at 2 h, 200 µM [10]: 176 µM; microsomal CLint [12]: < 3 µL/min/mg; solubility kinetic at 2 h, 200 µM [16]: 11.4 µM; logD at 2 h, 100 µM [17]: 0.332; solubility kinetic at 2 h, 200 µM [18]: 11.7 µM
O=C(O)c1ccc(-c2ccccc2F)o1	inactive		2.6							0.001	7.61	inhibition [19]: inactive; ΔTm [21]: -1.8 °C
CCc1nc(N)nc(N)c1OCCCOc1ccccc1CCC(=O)O				0.056		0.00054	> 100	0.005	0.0174			microsomal CLint [8]: < 3 µL/min/mg; solubility kinetic at 2 h, 200 µM [9]: 200 µM (≈ 72 µg/mL); solubility kinetic at 2 h, 200 µM [10]: 207 µM (≈ 74.6 µg/mL); microsomal CLint [12]: < 3 µL/min/mg; solubility kinetic at 2 h, 200 µM [16]: 204 µM (≈ 73.5 µg/mL); logD at 2 h, 100 µM [17]: -0.095; half-life [23]: < 20 h; solubility kinetic at 2 h, 200 µM [18]: 201 µM (≈ 72.5 µg/mL)
CCc1nc(N)nc(N)c1Cc1cccc(-c2cccc(C(=O)O)c2)c1				35	0.00023	0.00081	> 50	4.14	0.108			
O=C(O)c1ccc(-c2ccc(O)cc2)cc1	inactive	21.1	24.9							0.011	14.8	
O=C(O)c1ccc(-n2cccc2)cc1	inactive	8	19.4							0.008	14.6	
COc1ccccc1-c1ccc(C(=O)O)cc1	inactive	14.6	24									Activity [3]: Active; fold change (FC) [4]: 2.7
O=C(O)c1cccc(-c2ccccc2)n1	inactive									0.013	9.99	inhibition [19]: inactive; inhibition [24]: inactive
O=C(O)c1cccnc1-c1ccccc1	inactive											inhibition [19]: inactive; inhibition [24]: inactive; Activity [3]: Active
CCc1nc(N)nc(N)c1Cc1cccc(-c2ccc(C(=O)OC)cc2)c1				> 50	0.00025	0.00104	> 50	34.1	0.0166			logD at 2 h, 100 µM [17]: 3.24
CCc1nc(N)nc(N)c1Cc1ccc(-c2cccc(C(=O)O)c2)cc1.Cl				29.7	0.00029	0.00196	> 50	0.77	0.147			microsomal CLint [8]: 4.92 µL/min/mg; solubility kinetic at 2 h, 200 µM [9]: 11.4 µM; solubility kinetic at 2 h, 200 µM [10]: 192 µM; microsomal CLint [12]: < 3 µL/min/mg; solubility kinetic at 2 h, 200 µM [16]: 15.7 µM; solubility kinetic at 2 h, 200 µM [18]: 29.9 µM
O=C(O)c1ccnc(-c2ccccc2)c1	inactive									0.01	3.55	inhibition [19]: inactive; inhibition [24]: inactive
CCc1nc(N)nc(N)c1Cc1ccc(-c2cccc(C(=O)OC)c2)cc1.Cl				34.5	0.00029	0.00211	19.3	0.72	0.14			microsomal CLint [8]: 625 µL/min/mg; solubility kinetic at 2 h, 200 µM [9]: 183 µM; solubility kinetic at 2 h, 200 µM [10]: 186 µM; microsomal CLint [12]: 100 µL/min/mg; solubility kinetic at 2 h, 200 µM [16]: 8.8 µM; logD at 2 h, 100 µM [17]: 3.37; solubility kinetic at 2 h, 200 µM [18]: 8.1 µM
COc1cccc(-c2ccc(C(=O)O)o2)c1	inactive	12.7								0.014	9.51	inhibition [24]: inactive
